What was measured:
[1] = test system: boys with DMD; assay: MoveDMD trial: MRI-T2 and MR spectroscopy fat fraction of leg muscles; type: in vivo, human
Excerpt: The MR transverse relaxation time constant assessed by MRI (MRI-T2; also referred to as bulk T2) is sensitive to several pathophysiological features of disease pathology in DMD, including muscle damage, inflammation, and fat infiltration and provides a method for monitoring disease pathology over a wide age range. Furthermore, the proportion of fat infiltration in the muscle (fat fraction), measured using the gold standard, proton MRS (^1H-MRS), or a 3-point Dixon imaging technique, is associated with disease progression and correlates with performance on functional tests. (Willcocks et al., (2016), ANN. NEUROL., 79(4):535-47; Barnard et al., (2018), PLoS ONE, 13(3):E0194283). These are non-invasive measures of disease progression in DMD that are elevated and increase with age; changes in these measures strongly correlate with changes in function and predict future loss of functional milestones. […] The MRI-T2 value was a composite of 5 lower leg muscles. Stabilization of MRI-T2 values is consistent with the concomitant slowing of DMD disease progression observed through the functional assessments discussed previously.

[2] = MoveDMD trial: systemic exposure and Ctrough in DMD patients; type: in vivo, human; conditions: for daily exposure level versus level effective in inhibiting NF-κB in the adult study: boys with DMD
Protocol: The MoveDMD trial (see FIG. 10) was designed to evaluate efficacy, safety/tolerability, pharmacokinetics (PK), pharmacodynamics (PD), and dose response of edasalonexent. The first phase portion of the MoveDMD trial was a 1-week study to evaluate the safety, PK, and PD at 33 and 67 mg/kg/day, given in 2 divided doses, and 100 mg/kg/day given in 3 divided doses.
(§1) The second phase and the open-label extension (OLE) portions of the MoveDMD trial enrolled boys ages 4 through 7 with DMD. Phase 2 was a 12-week placebo-controlled study with two cohorts given 33 mg/kg twice daily (BID; 67 mg/kg/day; n=10) or 33 mg/kg three times daily (TID; 100 mg/kg/day; n=10), and a placebo cohort (n=10). Patients in the OLE continued with either dose regimen of edasalonexent.
The ratios of all 24 transcripts within a patient were also averaged, and are shown in FIG. 13 using symbols which represent this average from each individual patient. This average was graphed against the average edasalonexent Ctrough values within each dose cohort (shown on the x-axis in ng/ml).

[3] = test system: mdx mice; conditions: cited from earlier work
[4] = test system: NF-κB; conditions: dog model of DMD; cited from earlier work
[5] = test system: mdx mice; assay: Quadriceps muscle inflammation and fibrosis in young mdx mice treated four weeks (H&E and picrosirius red staining); type: in vivo
Protocol: Young mdx mice were treated for four weeks with varying dosing regimens of edasalonexent. The mdx mouse is a useful and generally accepted animal model for studying Duchenne muscular dystrophy (DMD) (Mann et al. (2001) PROC. NATL. ACAD. SCI. 98(1):42-7). mdx mice are deficient in expression of full-length dystrophin due to a genetic mutation within the dystrophin gene.
Mice were administered edasalonexent in their diet, and/or by oral gavage. Specifically, mice were administered 1% edasalonexent in their diet, 450 mg/kg/day delivered orally as single daily dose, 450 mg/kg/day delivered orally as three equally divided doses, and/or 600 mg/kg/day delivered orally as two 150 mg/kg/doses and one 300 mg/kg/dose. For dosing regimens with three daily doses, doses were delivered at 7:00 am, noon and 5:00 pm.
The dosing regimens for each treatment group are depicted in TABLE 4. Each treatment group included 10-11 mice.
Animals were treated for four weeks, sacrificed, and tissues were collected for histological analysis. For assessment of inflammation and fibrosis, quadriceps muscles were processed for hematoxylin and eosin (H&E) and picrosirius red (collagen) histochemical staining. From each animal, 2-4 complete transverse sections were digitally analyzed using ImageJ, with the hematoxylin-stained nuclear area determined as a measure of inflammatory infiltration, and the picrosirius red-stained area determined as a measure of fibrosis.

[6] = test system: boys with DMD; assay: MoveDMD trial: safety and tolerability; type: in vivo, human
Protocol: as §1, with “The MoveDMD trial (see FIG. 10) was designed to evaluate efficacy, safety/tolerability, pharmacokinetics (PK), pharmacodynamics (PD), and dose response of edasalonexent. The first phase portion of the MoveDMD trial was a 1-week study to evaluate the safety, PK, and PD at 33 and 67 mg/kg/day, given in 2 divided doses, and 100 mg/kg/day given in 3 divided doses. The” for “The”

[7] = after 48 weeks receiving 100 mg/kg/day
[8] = group 2, 1% edasalonexent in diet
[9] = group 4, oral QD 450 mg/kg/dose
[10] = group 7, oral TID 150/150/300 mg/kg/dose = 600 mg/kg/day

With `CC/C=C\C/C=C\C/C=C\C/C=C\C/C=C\C/C=C\CCC(=O)NCCNC(=O)c1ccccc1O` [edasalonexent, N-(2-[(4Z,7Z,10Z,13Z,16Z,19Z)-docosa-4,7,10,13,16,19-hexaenamido]ethyl)-2-hydroxybenzamide] the “annualized rate of change of MRI-T2 values (composite of 5 lower leg muscles)” value ([1]; 100 mg/kg/day treatment period (60 weeks) versus off-treatment period (36 weeks)) was “significantly improved”, the “change in fat fraction, soleus (MR spectroscopy)” value [1, 7] was 0.85% and the “change in fat fraction, vastus lateralis (MR spectroscopy)” value [1, 7] was 5.9%. For the same compound, the “daily exposure level versus level effective in inhibiting NF-κB in the adult study” value ([2]; 67 mg/kg/day (33 mg/kg twice daily)) was “comparable”, the “daily exposure level versus level effective in inhibiting NF-κB in the adult study” value ([2]; 100 mg/kg/day (33 mg/kg three times daily)) was “comparable” and the “mean Ctrough level” value ([2]; 100 mg/kg/day compared to 33 and 67 mg/kg/day, after one week) was “highest Ctrough level”. For the same compound, the “diaphragm function and cumulative run distance” value ([3]; long-term studies on mdx mice (Milne et al. 2014)) was “improved diaphragm function and increased cumulative run distance”, the “muscle regeneration, degeneration, inflammation and function” value ([3]; mdx mice (Milne et al. 2014)) was “enhance muscle regeneration, reduce muscle degeneration and inflammation, and preserve muscle function” and the “NF-κB activity (binding of p65 subunit to DNA, secretion of TNF-α)” value [4] was “decreases NF-κB activity”. The “quadriceps muscle fibrosis (picrosirius red-stained area)” value (“quadriceps muscle fibrosis” below) [5, 8] was “reduced”, the “quadriceps muscle inflammation (hematoxylin-stained nuclear area)” value (“quadriceps muscle inflammation” below) [5, 8] was “reduced” and the “quadriceps muscle fibrosis” value [5, 9] was “did not cause a significant reduction”. For the same compound, the “quadriceps muscle inflammation” value [5, 9] was “did not cause a significant reduction”, the “quadriceps muscle fibrosis” value [5, 10] was “further drove efficacy” and the “quadriceps muscle inflammation” value [5, 10] was “further drove efficacy”. For the same compound, the “nature of the majority of adverse events” value ([6]; 100 mg/kg, study subjects) was “mild in nature and mostly gastrointestinal”, the safety findings ([6]; 100 mg/kg, study subjects) was “no adverse findings” and the tolerability ([6]; 100 mg/kg, study subjects) was “well tolerated”. The “trends in hematology, chemistry, renal or adrenal function, calcium or phosphate levels” value ([6]; 100 mg/kg, study subjects) was “No adverse trends”, the “side effects compared to the 133 mg/kg/day dosing regimen” value ([6]; 100 mg/kg/day versus 133 mg/kg/day (33/33/67 mg/kg)) was “fewer side effects” and the heart rate ([6]; study subjects over the 60 week study period) was “decreased toward age normative values”. For the same compound, the height and weight ([6]; study subjects over the treatment period, CDC Growth Chart percentiles) was “age appropriate increases”.

From US20210023029A1, “EDASALONEXENT DOSING REGIMEN FOR TREATING MUSCULAR DYSTROPHY” (Catabasis Pharmaceuticals, Inc., priority 2017, published 2021)
